Experiments:
[1] = test system: CYP3A; assay: CYP Induction (CYP3A activity in cryopreserved hepatocytes, P450-Glo CYP3A4 assay); format: in vitro ADME; conditions: % of positive control (inducibility by 10 μmol/L rifampicin = 100%); hepatocytes treated 3 days
Protocol: Cryopreserved hepatocytes were thawed in a culture medium (In VitroGRO™ CP Medium, Celsis In Vitro Technologies, U.S.A.), and the resultant was added to BioCoat™ Matrigel® Matrix Thin-Layer 96 well (Becton, Dickinson and Company, U.S.A.) at a concentration of 40,000 cells/well. After culturing for 24 hours, the culture medium was removed, and replaced with an incubation medium (In VitroGRO™, HI Medium with Torpedo Antibiotic Mix, Celsis In Vitro Technologies, U.S.A.). Cells were cultured for an additional 3 days. The medium was removed on day 4, and the remained cells were treated in the induction medium containing a test compound for 3 days in the presence or absence of 10 μmol/L rifampicin. The induction medium was replaced every day. The test compound addition wells in the presence of 10 μmol/L rifampicin were used to evaluate the inhibitory effect of the test compound on the inducibility of the CYP3A activity by rifampicin. The CYP3A activity was evaluated by measuring luciferin generating amount after the addition of 2 μmol/L luciferin-IPA using IPA P450-Glo™ CYP3A4 assay systems (Promega Corporation, U.S.A.). All cultures were carried out under a humidified environment at 37° C., 5% CO2. The inducibility by rifampicin was defines as 100%, and the inducibility of the test compound (% of positive control) was calculated from the following equation: [(luciferin fluorescence intensity in the absence of rifampicin and the presence of test compound)−(luciferin fluorescence intensity in the absence of rifampicin and test compound)/(luciferin fluorescence intensity in the presence of rifampicin and the absence of test compound)−(Luciferin fluorescence intensity in the absence of rifampicin and test compound)]×100.

[2] = test system: CSQ-Tg mice; assay: Effect on survival rate of heart failure animal model; format: in vivo
Excerpt: In this Test Example, effect of the compound of Example 1 on survival rate was examined using heart failure animal models. The mice reported in Larry R. Jones et al., J. Clin. Invest. 101: 1385-1393, 1998 were obtained from the University of Pennsylvania and bred in-house, which were cardiac-specific transgenic mice of Calsequestrin (CSQ)(CSQ-Tg mice) as the heart failure animal models. In the study, female mice were used, and dosing was started from the age of 5 weeks. The animals were fed with chow (CE-2, CLEA Japan, Inc.) and tap water under the condition of room temperature of 20 to 26° C., humidity of 40 to 70%, and lighting time of 12 hours/day (7:00 to 19:00). As already reported, in the CSQ-Tg mice, Ca^2+ intracellular release was suppressed, myocardial contraction was reduced, cardiac output was decreased, and cardiac hypertrophy and heart failure were developed.
To 5-week old female CSQ-Tg mice, the compound of Example 1 was orally administered at a dose of 10 mg/kg bodyweight/day with a frequency of once daily (QD) for 47 days (n=24). While, to the control group, vehicle (0.5% methylcellulose aqueous solution) was administered (n=24).
To 5-week old female CSQ-Tg mice, the compound of Example 1 was orally administered at a dose of 10 mg/kg bodyweight/day in combination with candesartan cilexetil (1 mg/kg bodyweight/day) with a frequency of once daily (QD) for 68 days (n=18). […]

[3] = test system: CSQ-Tg mice; assay: Heart weight lowering effect in heart failure animal model; format: in vivo; conditions: for Heart weight (Mean ± standard deviation (mg)): female CSQ-Tg mice
Protocol: In this Test Example, the heart weight lowering effect of the compound of Example 1 was evaluated using CSQ-Tg mice as animal model for heart failure.
The compound of Example 1 was suspended in 0.5% methylcellulose aqueous solution (hereinafter, in Test Examples, sometimes referred to as “vehicle”) (10 mL/kg). The obtained suspension was orally administered to 5-week old female CSQ-Tg mice developing heart failure at a dose of 10 mg/kg bodyweight/day (n=7) or 30 mg/kg bodyweight/day (n=10) once daily (QD) for 21 days. For a negative control (vehicle administration group), 0.5% methylcellulose aqueous solution (n=7) was administered. Then, weights of the hearts were measured. The measurement of the weights was carried out by fractionating each of the hearts into four: left ventricle, right ventricle, left atrium, and right atrium. The sum of the weights of the four fractions was defined as the heart weight.

[4] = 10 mg/kg bodyweight/day oral QD for 21 days
[5] = 30 mg/kg bodyweight/day oral QD for 21 days

CC1(C)C[C@H](c2ccccc2)Nc2c(C(=O)N3C[C@@H]4C[C@]4(c4ccc(Cl)c(Cl)c4)C3)cnn21 [Example 1, ((1S,5R)-1-(3,4-Dichlorophenyl)-3-azabicyclo[3.1.0]hex-3-yl)((5R)-7,7-dimethyl-5-phenyl-4,5,6,7-tetrahydropyrazolo[1,5-a]pyrimidin-3-yl)methanone]
Inducibility (%) [1]: 4.9%
Survival rates, log-rank test p ([2]; 10 mg/kg bodyweight/day co-administered with candesartan cilexetil (1 mg/kg bodyweight/day) QD 68 days vs candesartan cilexetil mono-administration (FIG. 2)): < 0.001
Survival rates, log-rank test p ([2]; 10 mg/kg bodyweight/day oral QD for 47 days vs vehicle administration group (FIG. 1)): < 0.025
Left atrium weight (Mean ± standard deviation (mg)) [3, 4]: 10.7 ± 3.5 mg
Left ventricle weight (Mean ± standard deviation (mg)) [3, 4]: 160.1 ± 11.9 mg
Right atrium weight (Mean ± standard deviation (mg)) [3, 4]: 6.2 ± 3.1 mg
Right ventricle weight (Mean ± standard deviation (mg)) [3, 4]: 44.9 ± 5.1 mg
Heart weight (Mean ± standard deviation (mg)) [3, 4]: 221.9 ± 18.2 mg
Left atrium weight (Mean ± standard deviation (mg)) [3, 5]: 9.6 ± 2.6 mg
Left ventricle weight (Mean ± standard deviation (mg)) [3, 5]: 153.2 ± 12.7 mg
Right atrium weight (Mean ± standard deviation (mg)) [3, 5]: 5.8 ± 2.4 mg
Heart weight (Mean ± standard deviation (mg)) [3, 5]: 212.5 ± 21.9 mg
Right ventricle weight (Mean ± standard deviation (mg)) ([3]; 30 mg/kg bodyweight/day oral QD for 21 days, ** Williams' multiple comparison test (p < 0.025)): 43.9 ± 6.9** mg
